The text below walks through data of patent publication US20240400555A1 (Initial Therapeutics, Inc., priority 2023, published 2024).

One test relates to MV-4-11 cells. Description: Cell Viability Assay in MV-4-11 Cells. It counts as cell-based. To be noted: Homo sapiens, MV4-11, 72 h. In short, it runs like this:
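MV-4-11 cells at 7,000/well in IMDM with 10% FBS, exposed to compound for 72 h. Viability by CellTiter-Glo luminescence, normalized to DMSO as 100%, fitted with a four-parameter curve.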
In turn, `NC(=O)/C=C/c1cccc2ccnc(N(C(=O)c3ccc(-n4nnc5cccnc54)cc3F)[C@@H]3CCCNC3)c12` [Example 320, N-[8-[(E)-3-amino-3-oxo-prop-1-enyl]-1-isoquinolyl]-2-fluoro-N-[(3R)-3-piperidyl]-4-(triazolo[4.5-b]pyridin-3-yl)benzamide] registered a concentration for half-maximal inhibition (IC50) of 5.6 nM.

Staying with this test, now noted: Homo sapiens, MV4-11, 72 h, MV-4-11 cells, 72 h, Cell-Titer Glo; read-out: IC50.
With `Cc1cc(F)cc2ccnc(N(C(=O)c3ccc(-c4cn(C)nn4)cc3F)[C@@H]3CCCNC3)c12` [Example 474, (R)-2-fluoro-N-(6-fluoro-8-methylisoquinolin-1-yl)-4-(1-methyl-1H-1,2,3-triazol-4-yl)-N-(piperidin-3-yl)benzamide], the IC50 is 9.9 nM. Still for that read-out and setting: next, `Cc1nnc(-c2ccc(C(=O)N(c3nccc4cccc(C)c34)[C@@H]3CCCNC3)c(F)c2)o1` [Example 394, (R)-2-fluoro-4-(5-methyl-1,3,4-oxadiazol-2-yl)-N-(8-methylisoquinolin-1-yl)-N-(piperidin-3-yl)benzamide]: 140 nM; `Cn1cc(-c2ccc(C(=O)N(c3nccc4cc(-c5cccc(CO)c5)ccc34)[C@@H]3CCCNC3)c(F)c2)nn1` [Example 490, (R)-2-fluoro-N-(6-(3-(hydroxymethyl)phenyl)isoquinolin-1-yl)-4-(1-methyl-1H-1,2,3-triazol-4-yl)-N-(piperidin-3-yl)benzamide]: 300 nM; `Cc1noc(-c2ccc(C(=O)N(c3nccc4scc(C)c34)[C@@H]3CCCNC3)c(C)c2)n1` [Example 777, (R)-2-methyl-4-(3-methyl-1,2,4-oxadiazol-5-yl)-N-(3-methylthieno[3,2-c]pyridin-4-yl)-N-(piperidin-3-yl)benzamide]: 720 nM.

Regarding `NC(=O)c1ccc(-c2cc3c(N(C(=O)c4ccc(-n5nnc6cccnc65)cc4F)[C@@H]4CCCNC4)nccc3s2)cc1F` [Example 567, 2-fluoro-4-[4-[[2-fluoro-4-(triazolo[4,5-b]pyridin-3-yl)benzoyl]-[(3R)-3-piperidyl]amino]thieno[3,2-c]pyridin-2-yl]benzamide], the IC50 amounted to 230 nM.

As for `Cc1cccc2ccnc(N(C(=O)c3ccc(Nc4nccc(-c5ccccc5)n4)cc3F)[C@@H]3CCCNC3)c12` [Example 559, (R)-2-fluoro-N-(8-methylisoquinolin-1-yl)-4-((4-phenylpyrimidin-2-yl)amino)-N-(piperidin-3-yl)benzamide], the IC50 is 34 nM. The same measure, in the same setting: next, `Cc1nnc(-c2ccc(C(=O)N(c3nccc4sc(-c5ccc(C(N)=O)cc5)cc34)[C@@H]3CCCNC3)c(F)c2)s1` [Example 827, N-[2-(4-carbamoylphenyl)thieno[3,2-c]pyridin-4-yl]-2-fluoro-4-(5-methyl-1,3,4-thiadiazol-2-yl)-N-[(3R)-3-piperidyl]benzamide]: 910 nM. The same measure, in the same setting: next, `Cc1cccc2ccnc(N(C(=O)c3ccc(Nc4nccc(C5CCC(O)CC5)n4)cc3F)[C@@H]3CCCNC3)c12` (stereo partly drawn) [Example 679, (R)-2-fluoro-4-((4-(4-hydroxycyclohexyl)pyrimidin-2-yl)amino)-N-(8-methylisoquinolin-1-yl)-N-(piperidin-3-yl)benzamide]: 200 nM. For the molecule `Cn1cc(-c2ccc(C(=O)N(c3nccc4sc(-c5ccc6c(c5)C(=O)NC6)cc34)[C@@H]3CCCNC3)c(F)c2)nn1` [Example 533, 2-fluoro-4-(1-methyltriazol-4-yl)-N-[2-(3-oxoisoindolin-5-yl)thieno[3,2-c]pyridin-4-yl]-N-[(3R)-3-piperidyl]benzamide], the IC50 turned out to be 910 nM. Still for that read-out and setting: next, `[2H]C([2H])([2H])n1cc(-c2ccc(C(=O)N(c3nccc4cc(Cl)cc(C)c34)[C@@H]3CCCNC3)c(F)c2)nn1` [Example 893, N-(6-chloro-8-methyl-1-isoquinolyl)-2-fluoro-N-[(3R)-3-piperidyl]-4-[1-(trideuteriomethyl)triazol-4-yl]benzamide]: 40 nM; `COCCc1c(-c2ccc(C(=O)N(c3nccc4cc(Cl)cc(C)c34)[C@@H]3CCCNC3)c(F)c2)nnn1C` [Example 636, (R)—N-(6-chloro-8-methylisoquinolin-1-yl)-2-fluoro-4-(5-(2-methoxyethyl)-1-methyl-1H-1,2,3-triazol-4-yl)-N-(piperidin-3-yl)benzamide]: 100 nM; `COc1cc(C)c2c(N(C(=O)c3ccc(-c4nnc(C)s4)cn3)[C@@H]3CCCNC3)nccc2c1` [Example 864, N-(6-methoxy-8-methyl-1-isoquinolyl)-5-(5-methyl-1,3,4-thiadiazol-2-yl)-N-[(3R)-3-piperidyl]pyridine-2-carboxamide]: 130 nM. Same read-out and setting: next, `Cc1cccc2ccnc(N(C(=O)c3ccc(Nc4nccc(N5CCC(N(C)C)CC5)n4)cc3F)[C@@H]3CCCNC3)c12` [Example 714, (R)-4-((4-(4-(dimethylamino)piperidin-1-yl)pyrimidin-2-yl)amino)-2-fluoro-N-(8-methylisoquinolin-1-yl)-N-(piperidin-3-yl)benzamide]: 230 nM; `Cn1cc(-c2ccc(C(=O)N(c3nccc4cc(-c5cccnc5)ccc34)[C@@H]3CCCNC3)c(F)c2)nn1` [Example 370, (R)-2-fluoro-4-(1-methyl-1H-1,2,3-triazol-4-yl)-N-(piperidin-3-yl)-N-(6-(pyridin-3-yl)isoquinolin-1-yl)benzamide]: 180 nM. As to `Cn1cc(-c2ccc(C(=O)N(c3nccc4cc(-c5ccc(CN)cc5)ccc34)[C@@H]3CCCNC3)c(F)c2)nn1` [Example 834, (R)—N-(6-(4-(aminomethyl)phenyl)isoquinolin-1-yl)-2-fluoro-4-(1-methyl-1H-1,2,3-triazol-4-yl)-N-(piperidin-3-yl)benzamide], the IC50 was found to be 140 nM. The same measure, in the same setting: next, `Cc1cccc2ccnc(N(C(=O)c3ccc(Nc4nccc(NCc5cccnc5)n4)cc3F)[C@@H]3CCCNC3)c12` [Example 696, (R)-2-fluoro-N-(8-methylisoquinolin-1-yl)-N-(piperidin-3-yl)-4-((4-((pyridin-3-ylmethyl)amino)pyrimidin-2-yl)amino)benzamide]: 200 nM; `Cc1csc2ccnc(N(C(=O)c3ccc(-c4nnn(C)c4C)cc3F)[C@@H]3CCCNC3)c12` [Example 782, (R)-4-(1,5-dimethyl-1H-1,2,3-triazol-4-yl)-2-fluoro-N-(3-methylthieno[3,2-c]pyridin-4-yl)-N-(piperidin-3-yl)benzamide]: 120 nM; `Cc1nnc(-c2ccc(C(=O)N(c3nccc4cc(F)cc(C)c34)[C@@H]3CCCNC3)c(F)c2)o1` [Example 776, (R)-2-fluoro-N-(6-fluoro-8-methylisoquinolin-1-yl)-4-(5-methyl-1,3,4-oxadiazol-2-yl)-N-(piperidin-3-yl)benzamide]: 150 nM. For the molecule `CCc1csc2ccnc(N(C(=O)c3ccc(-c4nnc(C)s4)cc3F)[C@@H]3CCCNC3)c12` [Example 617, (R)—N-(3-ethylthieno[3,2-c]pyridin-4-yl)-2-fluoro-4-(5-methyl-1,3,4-thiadiazol-2-yl)-N-(piperidin-3-yl)benzamide], the IC50 was 540 nM. For `Cn1ccc2ccnc(N(C(=O)c3ccc(Nc4ncccn4)cc3F)[C@@H]3CCCNC3)c21` [Example 926, (R)-2-fluoro-N-(1-methyl-1H-pyrrolo[2,3-c]pyridin-7-yl)-N-(piperidin-3-yl)-4-(pyrimidin-2-ylamino)benzamide], the 50% inhibitory concentration (IC50) came to 75 nM.

In general, IC50 refers to the concentration that gives 50% inhibition.
